In PubChem BioAssay AID312 (DTP/NCI, 2004) one finds T/C data, which are given here for 19 molecules.

Values joined by “and” are separate entries in the source; they are usually repeats but may differ in a detail not shown here. Equal entries are not always repeated. Toxic doses and inconclusive results are not listed.

This assay relates to BDF1 mice, C1498 leukemia ip, median survival T/C. Briefly: NCI In Vivo Anticancer Drug Screen. Data for tumor model C1498 Myeloid Leukemia (intraperitoneal) in B6D2F1 (BDF1) mice. To be noted: endpoint: median survival time, higher = longer survival. On the procedure: The antitumor activity of compounds was measured in mice bearing transplantable tumors. Survival or tumor size were measured and the results are expressed as the measurement made in the treated group (T) divided by the measurement made in the vehicle treated control group (C). The tumor model used in this assay is C1498 Myeloid Leukemia (intraperitoneal) in B6D2F1 (BDF1) mice

The mark [1] stands for this setting: dose: 25.0 mg/kg/injection, schedule: Q01DX010 (ip), vehicle: saline.
[2] abbreviates: dose: 50.0 mg/kg/injection, schedule: Q01DX010 (ip), vehicle: saline.
The mark [3] stands for this setting: dose: 100.0 mg/kg/injection, schedule: Q01DX010 (ip), vehicle: saline.
The mark [4] stands for this setting: dose: 200.0 mg/kg/injection, schedule: Q01DX010 (ip), vehicle: saline.
Setting [5] is: dose: 400.0 mg/kg/injection, schedule: Q01DX010 (ip), vehicle: saline.
Setting [6] is: dose: 31.3 mg/kg/injection, schedule: Q01DX010 (ip), vehicle: saline.
Setting [7] is: dose: 62.5 mg/kg/injection, schedule: Q01DX010 (ip), vehicle: saline.
Setting [8] is: dose: 125.0 mg/kg/injection, schedule: Q01DX010 (ip), vehicle: saline.
Setting [9] is: dose: 250.0 mg/kg/injection, schedule: Q01DX010 (ip), vehicle: saline.
The mark [10] stands for this setting: dose: 20.0 mg/kg/injection, schedule: Q01DX010 (ip), vehicle: saline.
[11] abbreviates: dose: 6.25 mg/kg/injection, schedule: Q01DX010 (ip), vehicle: saline.
Where [12] appears, read: dose: 12.5 mg/kg/injection, schedule: Q01DX010 (ip), vehicle: saline.
Where [13] appears, read: dose: 30.0 mg/kg/injection, schedule: Q01DX010 (ip), vehicle: saline.
Where [14] appears, read: dose: 60.0 mg/kg/injection, schedule: Q01DX010 (ip), vehicle: saline.

As to `Cc1cc2nc3c(=O)[nH]c(=O)nc-3n(CC(O)C(O)C(O)C(O)CO)c2cc1C` (stereo unspecified), the T/C reads like this: under setting [1], 100 % of control; under setting [2], 100 % of control; under setting [3], 95 % of control; under setting [4], 91 % of control; under setting [5], 87 % of control.
Regarding `CN(C)c1ccc(Nc2c3ccccc3nc3ccccc23)cc1`, the T/C (dose: 36.0 mg/kg/injection, schedule: Q01DX010 (ip), vehicle: saline) is 118 % of control and the T/C (dose: 120.0 mg/kg/injection, schedule: Q01DX010 (ip), vehicle: saline) is 86 % of control.
With `CCN(CCNc1ccc(C)c2sc3cc(Cl)ccc3c(=O)c12)CC(C)O` (stereo unspecified), the T/C was 86 % of control under setting [6]; 104 % of control and 90 % of control under setting [7]; 95 % of control and 86 % of control under setting [8]; 86 % of control under setting [9].
In the case of `Nc1nc2n[nH]nc2c(=O)[nH]1`, the T/C was 92 % of control and 96 % of control (dose: 25.0 mg/kg/injection, schedule: Q01DX010 (ip), vehicle: alkali diluted with saline); 92 % of control and 96 % of control (dose: 50.0 mg/kg/injection, schedule: Q01DX010 (ip), vehicle: alkali diluted with saline); 100 % of control and 89 % of control (dose: 100.0 mg/kg/injection, schedule: Q01DX010 (ip), vehicle: alkali diluted with saline); 96 % of control (dose: 200.0 mg/kg/injection, schedule: Q01DX010 (ip), vehicle: alkali diluted with saline).
Turning to `O=NN(CCCl)C(=O)NCCCl`, the T/C (dose: 30.0 mg/kg/injection, schedule: Q01DX001 (ip), vehicle: saline + alcohol) is 420 % of control and the T/C (dose: 35.0 mg/kg/injection, schedule: Q01DX001 (ip), vehicle: saline + alcohol) was 247 % of control.
Turning to `C[C@@H]1C[C@@H]([C@H](O)CC2CC(=O)NC(=O)C2)C(=O)[C@@H](C)C1`, the T/C was 104 % of control and 109 % of control (dose: 5.0 mg/kg/injection, schedule: Q01DX010 (ip), vehicle: saline); 114 % of control and 122 % of control (dose: 10.0 mg/kg/injection, schedule: Q01DX010 (ip), vehicle: saline); 113 % of control and 123 % of control under setting [10]; 113 % of control (dose: 40.0 mg/kg/injection, schedule: Q01DX010 (ip), vehicle: saline).
Regarding `CS(=O)(=O)OCCCCOS(C)(=O)=O`, the T/C runs as follows: under setting [11], 95 % of control; under setting [12], 95 % of control and 90 % of control; under setting [1], 113 % of control; under setting [2], 109 % of control and 119 % of control.
Regarding `N#CCSc1ncnc2nc[nH]c12`, the T/C is 105 % of control under setting [13] and 110 % of control under setting [14].
For the molecule `CN(C)c1nc(N(C)C)nc(N(C)C)n1`, the T/C was 100 % of control and 109 % of control (dose: 18.8 mg/kg/injection, schedule: Q01DX010 (ip), vehicle: saline); 104 % of control and 118 % of control (dose: 37.5 mg/kg/injection, schedule: Q01DX010 (ip), vehicle: saline); 100 % of control and 109 % of control (dose: 75.0 mg/kg/injection, schedule: Q01DX010 (ip), vehicle: saline); 109 % of control and 118 % of control (dose: 150.0 mg/kg/injection, schedule: Q01DX010 (ip), vehicle: saline).
As for `O=C(Nc1ccc(C2=NCCN2)cc1)c1cccc(C(=O)Nc2ccc(C3=NCCN3)cc2)c1`, the T/C is 92 % of control and 96 % of control (dose: 8.0 mg/kg/injection, schedule: Q01DX010 (ip), vehicle: saline); 96 % of control and 103 % of control (dose: 16.0 mg/kg/injection, schedule: Q01DX010 (ip), vehicle: saline); 115 % of control and 117 % of control (dose: 32.0 mg/kg/injection, schedule: Q01DX010 (ip), vehicle: saline).
As to `Clc1ncnc2nc[nH]c12`, the T/C reads like this: (dose: 7.5 mg/kg/injection, schedule: Q01DX010 (ip), vehicle: saline) 95 % of control and 100 % of control; (dose: 15.0 mg/kg/injection, schedule: Q01DX010 (ip), vehicle: saline) 95 % of control and 90 % of control; under setting [13], 104 % of control and 90 % of control; under setting [14], 95 % of control.
Regarding `O=c1[nH]cc(F)c(=O)[nH]1`, the T/C is, setting by setting: under setting [10], 159 % of control; (dose: 25.0 mg/kg/injection, schedule: Q01DX009 (ip), vehicle: saline) 165 % of control; (dose: 30.0 mg/kg/injection, schedule: Q01DX009 (ip), vehicle: saline) 165 % of control.
`O=c1c(O)cccc2cc(O)c(O)c(O)c12`: the T/C by setting is: under setting [1], 90 % of control; under setting [2], 100 % of control.
Take `CCN(CC)CCNc1ccc(C)c2sc3ccccc3c(=O)c12`: the T/C runs as follows: under setting [1], 113 % of control and 118 % of control; under setting [2], 118 % of control and 122 % of control; under setting [3], 159 % of control and 172 % of control.
With `COc1cccc2c1C(=O)c1c(O)c3c(c(O)c1C2=O)C[C@@](O)(C(C)=O)C[C@@H]3OC1CC(N)C(O)C(C)O1` (stereo partly specified), the T/C reads like this: (dose: 1.25 mg/kg/injection, schedule: Q01DX010 (ip), vehicle: other) 107 % of control and 115 % of control; (dose: 2.5 mg/kg/injection, schedule: Q01DX010 (ip), vehicle: other) 92 % of control and 111 % of control; (dose: 156.0 micrograms/kg/injection, schedule: Q01DX010 (ip), vehicle: saline) 118 % of control; (dose: 313.0 micrograms/kg/injection, schedule: Q01DX010 (ip), vehicle: saline) 118 % of control.
Turning to `O=c1cnn(C2OC(CO)C(O)C2O)c(=O)[nH]1` (stereo unspecified), the T/C under setting [4] was 104 % of control; the T/C under setting [5] was 100 % of control; the T/C (dose: 800.0 mg/kg/injection, schedule: Q01DX010 (ip), vehicle: saline) was 100 % of control.
In the case of `Nc1c(Br)cc2c(c1Br)Cc1cc([N+](=O)[O-])ccc1-2`, the T/C reads like this: under setting [6], 91 % of control; under setting [7], 91 % of control and 100 % of control; under setting [8], 91 % of control; under setting [9], 91 % of control and 95 % of control; (dose: 500.0 mg/kg/injection, schedule: Q01DX010 (ip), vehicle: saline) 95 % of control.
Regarding `CS(=O)(=O)OCC(O)C(O)C(O)C(O)COS(C)(=O)=O` (stereo unspecified), the T/C is 100 % of control (2×) and 104 % of control under setting [1]; 95 % of control and 100 % of control and 108 % of control under setting [2]; 100 % of control (2×) and 109 % of control under setting [3]; 104 % of control under setting [4].
As to `C[C@H]1C(=O)O[C@@H]2CCN3CC=C(COC(=O)[C@](C)(O)[C@@]1(C)O)[C@H]23`, the T/C is, setting by setting: (dose: 3.13 mg/kg/injection, schedule: Q01DX010 (ip), vehicle: saline) 100 % of control and 103 % of control; under setting [11], 100 % of control; under setting [12], 95 % of control and 107 % of control; under setting [1], 95 % of control and 96 % of control.
